The data set can be described thus: gradient 5% acetonitrile 3 min, to 50% in 2 min, to 85% in 15 min, held 3 min, 100 µL/min. Conditions: column: Zorbax Extend-C18 2.1 x 50 mm; eluents: water / acetonitrile, 0.1% formic acid. The procedure, abridged:
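Retention time was recorded from adduct peaks, which were picked computationally and each inspected manually. Pure standards ran in mixtures of ~100 molecules on HPLC coupled to a quadrupole time-of-flight mass spectrometer, in positive and negative ionization mode, through a Zorbax Extend-C18 column (2.1 × 50 mm, 1.8 μm) at 100 μL/min. Eluents were water and acetonitrile, each with 0.1% formic acid.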
Take `CN(CCCNC(=O)CN1C(=O)CSc2cccn2-c2ccccc21)Cc1ccccc1`: the RP-LC retention time was 677 s.

On to `COc1ccc(N2CCN(c3cc(SCC(=O)Nc4ccc(C)cc4F)ncn3)CC2)cc1`, for which the RP-LC retention time was found to be 1110 s. On to `CSc1cccc(NC(=O)CCc2c(-c3ccccc3)nc3ccccn23)c1`, for which the RP-LC retention time was found to be 691 s. `CCOCCCNC(=O)C(C)Sc1ccc(=O)n(-c2ccc(C)c(Cl)c2)n1` (stereo not given) had an RP-LC retention time of 797 s. For the molecule `O=C(Nc1ccc(Cl)cc1)c1oc2ccccc2c1NC(=O)C1CC1`, the RP-LC retention time was determined as 1080 s. Molecule `CCOC(=O)N1CCC(NC(=O)C2CCCN(Cc3nc(-c4cccnc4)no3)C2)CC1` (stereo not given) came in with an RP-LC retention time of 559 s. To `CC(C)(C)C1CCC(OCC(O)CN2CCN(CCO)CC2)CC1` (stereo not given) belongs 581 s; to `Cc1cc2nnc(SCC(=O)c3cc(C)n(CC4CCCO4)c3C)n2c2ccccc12` (stereo not given), 784 s. Under `Cc1ccc2c(C(=O)NCc3ccccc3C)cc(NC(=O)C(C)C)cc2n1` stands 671 s; under `O=S(=O)(c1ccc(-c2cc(C(F)(F)F)on2)o1)N1CCCCC1`, 1110 s. As for `COCCN1C(=O)CCC2(CNC(=O)c3sccc3C)CCCC=C12` (stereo not given), the RP-LC retention time was found to be 804 s. `NC(=O)c1ccc(Cl)c2ccccc12` displayed an RP-LC retention time of 777 s. In turn, `O=C(Cn1nc(N2CCOCC2)c2ccccc2c1=O)Nc1ccc(F)c(F)c1` yielded an RP-LC retention time of 796 s. `CC1(C)Cc2cccc(OCC(=O)N3CCN(CCn4cccn4)CC3)c2O1` registered an RP-LC retention time of 583 s.

Consider `O=C(Cc1csc2nc(-c3cccc(Br)c3)cn12)NC1CCCCC1`, for which the RP-LC retention time was found to be 952 s.

`CCOC(=O)c1c(S(=O)(=O)N2CCC(C(=O)Nc3cccc(OC)c3)CC2)c(C)n(C)c1C` came in with an RP-LC retention time of 834 s. In the case of `CC1CN(S(=O)(=O)c2cccc(-c3cn4ccccc4n3)c2)CC(C)O1` (stereo not given), the RP-LC retention time was found to be 640 s. Turning to `Cc1cc(N2CCN(C)CC2)nc2ccc(NC(=S)NCc3ccc(F)cc3)cc12`, the RP-LC retention time worked out at 599 s. On to `CC(C)c1cc(C(=O)N2CCOCC2)nc2ccnn12`, for which the RP-LC retention time was determined as 637 s. In the case of `c1ccc(-c2ccc(CNCC3CCCO3)o2)cc1` (stereo not given), the RP-LC retention time was determined as 642 s.

Molecule `Cc1ccc(C(=O)COc2ccc(N3C(=O)C4CCC(C)CC4C3=O)cc2)cc1C` (stereo not given) gave an RP-LC retention time of 1120 s. `CCCC(CCC)C(=O)NCCc1c[nH]c2ccc(C)cc12`: the RP-LC retention time stood at 996 s.

Consider `O=C(Nc1ccc(-c2nnc3n2CCCC3)cc1)C1CCC1`, for which the RP-LC retention time came to 622 s.

`Cc1ccn2cc(-c3ccc(NC(=O)CCC4CCCC4)cc3)nc2n1` showed an RP-LC retention time of 722 s. As for `CN(C)C(=O)c1ccc2c(c1)N(CC(=O)N1CCCCC1)C(=O)C1CCCCN21` (stereo not given), the RP-LC retention time was 701 s. Molecule `CCn1cnc2cc(-c3noc(-c4cc(OC)c(OC)c(OC)c4)n3)ccc21` had an RP-LC retention time of 732 s. For `Cc1noc(COC2CCCN(C(=O)NCc3ccccc3)C2)n1` (stereo not given), the RP-LC retention time turned out to be 684 s. `CCn1nccc1C(=O)NCC1Cn2cccc2C(=O)N1C` (stereo not given): the RP-LC retention time is 605 s.

`Cc1cc(CN2CCC(CNC(=O)CSc3ccc(F)cc3)CC2)c(C)o1` had an RP-LC retention time of 583 s. To `Cc1cc(C)n(-c2ccnc(N3CCC(C(=O)NCc4ccncc4)CC3)n2)n1` belongs 599 s; to `OCCN1CCN(c2ncnc3c2cnn3-c2cccc(Cl)c2)CC1`, 592 s; to `CCCC(=O)Nc1cc2c(cc1S(=O)(=O)c1ccc(C)cc1)n(C)c(=O)n2C`, 824 s. The molecule `O=C([C@@H]1C[C@H](Oc2cccnc2)CN1C(=O)C1CCC1)N1CCCC1` returned an RP-LC retention time of 565 s. For `O=C(O)CNS(=O)(=O)c1cccc2nsnc12`, the RP-LC retention time stood at 595 s. `COc1cccc(N2C(=O)c3ccccc3C2C(=O)NC2CCCC2)c1` (stereo not given): the RP-LC retention time was 775 s. In turn, `O=C(Cn1ncc2c(N3CCN(c4ccccn4)CC3)ncnc21)NCc1ccc(F)c(Cl)c1` yielded an RP-LC retention time of 628 s. Turning to `Cc1cc2c(c(C#N)c1C)NC=NC2C` (stereo not given), the RP-LC retention time was 641 s. On to `CC(=O)c1cccc(C(=O)N2CCC3(CC2)NC(=O)N(Cc2cccc(Cl)c2)C3=O)c1`, for which the RP-LC retention time worked out at 771 s. `CCN(CC)c1ccc(Nc2nc(-c3ccc(Cl)cc3)cs2)cc1` returned an RP-LC retention time of 791 s. With `O=C(O)CCN1C(=O)C2C3C=CC(C3)C2C1=O` (stereo not given), the RP-LC retention time was found to be 570 s. To `Cn1c(=O)c2ccnn2c2ccc(C(=O)NCc3ccccc3)cc21` belongs 665 s; to `CC(C)N1CCN(C(=O)CC2Sc3ncccc3N(C)C2=O)CC1` (stereo not given), 570 s. On to `O=C(NC1CC1)C1CCN(S(=O)(=O)Cc2ccc(F)cc2)CC1`, for which the RP-LC retention time stood at 929 s.

Molecule `O=C(CSc1ncnc2c1cnn2-c1ccccc1)Nc1ccc(OC(F)(F)F)cc1` displayed an RP-LC retention time of 1160 s. Take `O=S(=O)(Cc1nc(-c2ccc(Br)cc2)no1)c1ccccc1`: the RP-LC retention time amounted to 1040 s. To `Cc1cc(OCC(=O)Nc2ccc(C)c(C)c2)nc(N2CCN(c3ccccc3)CC2)n1` belongs 911 s. In turn, `O=C(c1ccc2c(c1)OCO2)N1CCC2(CC1)N=C(c1ccc(Cl)cc1)NO2` yielded an RP-LC retention time of 956 s.

On to `O=C(Nc1ccccc1Br)N1CCc2nc(-c3ccc(F)cc3)ncc2C1`, for which the RP-LC retention time worked out at 1020 s. `O=S(=O)(c1ccc(Cl)c(-c2nnc(-c3ccccc3)o2)c1)N1CCOCC1` showed an RP-LC retention time of 946 s. `O=C(O)CC1Sc2ccccc2NC1=O` (stereo not given) showed an RP-LC retention time of 607 s. For the molecule `CCCc1noc(-c2ccc(-n3ncc(C(=O)N4CCSCC4)c3C)nc2)n1`, the RP-LC retention time turned out to be 967 s. As for `Cc1ccc(-c2nnc(N3CCC(C(=O)NCCC(C)C)CC3)o2)cc1`, the RP-LC retention time came to 881 s. In turn, `CCc1nnc(-c2ccc3ccn(CC(=O)N4CCN(c5cccc(Cl)c5)CC4)c3c2)o1` showed an RP-LC retention time of 987 s. Molecule `CCC(NC(=O)c1ccc2c(c1)nc1n2CCN(C2CCCCC2)C1=O)c1cccs1` (stereo not given) yielded an RP-LC retention time of 851 s.

Take `O=C(c1ccc(-c2nccnc2N2CCCC2)cc1)N1CCN(c2ccccc2)CC1`: the RP-LC retention time worked out at 942 s. As to `CCn1cc(CCN2CCN(S(=O)(=O)c3cc(C)cc(C)c3)CC2)c2cccnc21`, the RP-LC retention time was 698 s. `COc1cc(Cl)c(C)cc1NC(=O)C1CCN(c2c(C(=O)N3CCOCC3)cnc3snc(C)c23)CC1` had an RP-LC retention time of 945 s. On to `CCOc1ccc(CNC(=O)C2CCCN(c3cc(=O)n(C)c(=O)n3C)C2)cc1` (stereo not given), for which the RP-LC retention time amounted to 709 s.

`CCn1cc(-c2nc(CC(=O)NCc3ccccc3Cl)cs2)c2cccnc21`: the RP-LC retention time was found to be 924 s. `O=c1n(Cc2cc(F)cc(F)c2)nc2ccc(S(=O)(=O)N3CCCCC3)cn12` yielded an RP-LC retention time of 960 s. Take `CCCNC(=O)C1CCN(c2ccc(SCC(=O)Nc3cccc(SC)c3)nn2)CC1`: the RP-LC retention time was found to be 677 s.

The molecule `CCn1c(CCC(=O)NCc2ccc(F)c(Cl)c2)nc2c(C)cccc2c1=O` yielded an RP-LC retention time of 916 s. On to `CN1CCN(C(=O)c2ccc(CN3CCN(Cc4ccc(F)cc4)C(=O)C3=O)cc2)CC1`, for which the RP-LC retention time was 592 s. In turn, `O=C(NCc1ccc(C(F)(F)F)cc1)C1CCCN(c2nccnc2Sc2ccccc2)C1` (stereo not given) came in with an RP-LC retention time of 1140 s.

On to `CCOC(=O)c1csc(NC(=O)c2ccn(CC)n2)n1`, for which the RP-LC retention time was 702 s.

In the case of `CCc1ccccc1NC(=O)N1CCCC1c1nc(-c2ccc(OC)cc2)no1` (stereo not given), the RP-LC retention time is 976 s. The molecule `CCOc1ccc(C2c3[nH]c4ccccc4c3CCN2C(=O)C2CCC2)cc1` (stereo not given) yielded an RP-LC retention time of 1210 s. To `COc1ccccc1-c1nnc(-c2cccc(S(=O)(=O)N3CCCCC3)c2)o1` belongs 981 s; to `O=C(Nc1cnc(-c2ccc(F)cc2)nc1)C1CC1`, 829 s. Under `CC(C)OCCCNC(=O)c1c2c(cn(-c3ccccc3)c1=O)C(=O)CC(C)(C)C2` stands 878 s. Molecule `COCCn1nnnc1C1CC2(CCOCC2)C(=O)N1CCc1ccc(Cl)cc1` (stereo not given) displayed an RP-LC retention time of 880 s. For the molecule `CCN1C(=O)c2c(C(=O)NCc3ccccc3Cl)ncn2CC1(C)C(=O)NC1CCCC1` (stereo not given), the RP-LC retention time stood at 779 s. `CCN(CC)CCNC(=O)CCc1c(C)nc2c(c1C)c(=O)n(C)c(=O)n2C` came in with an RP-LC retention time of 602 s.

In turn, `COc1ccc(Cl)cc1C(=O)N1CCCN(C2CCN(CC3CC3)C2=O)CC1` (stereo not given) had an RP-LC retention time of 553 s. Under `CC(C)Oc1ccc(-c2noc(CN3N=NC4C(=O)N(c5ccc(C(C)C)cc5)C(=O)C43)n2)cc1` (stereo not given) stands 1180 s; under `CCOc1cccc(CNC(=O)c2cn(C)nc2S(=O)(=O)N2CCSCC2)c1`, 889 s. Molecule `COc1ccc(-c2nc3cc(C)ccn3c2NC(=O)c2cccc(C(F)(F)F)c2)cc1OC` yielded an RP-LC retention time of 729 s.

As for `Cc1cccc(-c2nc3ccccn3c2NC(=O)Nc2cc(F)ccc2F)c1`, the RP-LC retention time was 715 s.

`C=CCN1C(=O)COc2ccc(-c3csc(NC(=O)C(C)(C)C)n3)cc21` showed an RP-LC retention time of 964 s. Under `COc1cc(NC(=O)CCc2nc(-c3ccc(N4CCCC4)cc3)no2)cc(OC)c1` stands 1070 s.

(Values after the METLIN SMRT retention time set (Domingo-Almenara et al. 2019).)
